Measurements reported in patent US8697840B2, “Peptide inhibition of lung epithelial apoptosis and pulmonary fibrosis” (Board of Regents, The University of Texas System, priority 2008, dated 2014).

Columns and labels:
uPAR = assay: Western blot of lung membrane proteins of bleo-treated mice: uPAR; format: in vivo, mouse; conditions: 40 μg bleomycin intranasally, 10 mM peptide i.p. by 0.1 ml osmotic pump after 24 h, day 7
Description: Mice were treated intranasally with 50 μl saline (SAL; control) or an equal volume of a 40 μg bleomycin solution (Bleo). After 24 h, 10 mM PP-1 (“Bleo+PP-1”) or control peptide (Bleo+CP-1) were given intraperitoneally using a 0.1 ml osmotic pump. Lungs were excised on day 7, bronchoalveolar lavage (BAL) fluid (“B”), lung homogenates (“H”) and membrane proteins (uPAR) were analyzed by Western blotting using antibodies specific for the murine proteins. (The same blot (“H”) was then stripped and analyzed for β-actin confirm equivalent loading of the lanes)
Mice were treated intranasally with 50 μl saline or an equal volume of a 40 μg bleomycin solution. After 24 h, 10 mM PP-1 or the same concentration of control peptide CP-1 were given intraperitoneally using a 0.1 ml osmotic pump. Lungs were excised on day 7.
After preparation of the cytosolic extract, above, the pellet obtained after the initial centrifugation was resuspended in a membrane extraction buffer containing β-D-glucopyranoside and the suspension was homogenized for 5 to 10 min. […] The resulting clarified supernatant was analyzed for uPAR expression by Western blotting with anti-uPAR antibody and detected by ECL.
Mice were treated intranasally with saline (controls) are indicated (SAL). […] (The same blot (H) was later stripped and analyzed for β-actin confirm equivalent loading of the lanes)

[1] = system: bleomycin-induced lung epithelial cell (LEC) apoptosis; assay: TUNEL staining for apoptosis of lung sections of bleo-treated mice; format: in vivo, mouse; conditions: for Lung epithelial cell apoptosis: appearance of cells / Lung epithelial cell apoptosis: cell death: bleo-treated animals, peptide one day after bleo; for Lung epithelial cell apoptosis: appearance of cells: lung tissue day 21; for Lung epithelial cell apoptosis: cell death: lung tissue day 21, TUNEL; for apoptosis (TUNEL positive cells): peptide 4.5 μM i.p. on day 1 and 2, bleomycin 40 μg/50 μl intranasal on day 2, 24, 48 and 72 h
Description: The mice were sacrificed 24, 48 and 72 h later. Lungs were excised, inflated and fixed in formalin, and […] sections were analyzed by TUNEL staining. […]

cleaved PARP = assay: IHC of lung sections of bleo-treated mice: cleaved PARP; format: in vivo, mouse; conditions: peptide 4.5 μM i.p. days 1 and 2, bleomycin 40 μg/50 μl intranasal day 2; up to 72 h
Description: On day 2 mice were treated with bleomycin (40 μg/50μl) by intranasal instillation. Mice were sacrificed 24, 48 and 72 h after later, lungs were excised, inflated and fixed in formalin, and […] sections were analyzed by immunohistochemistry (IHC) using an antibody specific for cleaved PARP.
(§1) For immunohistochemical (IHC) analysis, lungs were inflated at constant pressure of 20 cm H2O, removed and fixed overnight in 2% paraformaldehyde in PBS. Tissue was dehydrated by passage through a standard alcohol series and was embedded in paraffin. 5 μm sections were deparaffinized with xylene followed by incubation with 100% and 95% alcohol. After 10 min of antigen retrieval, the slides were incubated with H2O2 for 30 min to quench endogenous peroxidase. Slides were incubated overnight with the respective antibodies in PBS containing 0.1% Tween 20 and further processed using Lab vision kit (Freemont Calif.).

PAI-1 = assay: IHC of lung tissue of bleo-treated mice: PAI-1; format: in vivo, mouse; conditions: bleomycin-treated mice, 24-72 h
Description: as §1
An IHC study was conducted to analyze lung tissue for expression p53, uPA, uPAR, PAI-1 and cleaved caspase 3 (Table 2). […] These IHC observations were confirmed by Western blotting (see Example II and FIG. 5).

[2] = system: bleo-induced lung injury in the mouse; assay: Lung desmosine (elastin) after bleo-induced lung injury; format: in vivo; conditions: 50 μg Bleo intranasally; 10 mM peptide in 0.1 ml osmotic pump i.p. one day later; lungs after 21 days
Description: FIGS. 10A and 10B are graphs showing the effect of PP-1 on fibrosis following bleo-induced lung injury in the mouse. […] 24 h after bleo, 0.1 ml osmotic pump filled with 10 mM PP-1 (designated “Bleo+PP” in Figures) or CP1 control scrambled peptide (“Bleo+CP1”) were implanted intraperitoneally. Lungs were harvested after 21 days, homogenized and the homogenates were subjected to the analysis of hydroxyproline or desmosine levels.
Lungs were harvested after 21 days, homogenized and the homogenates were subjected to the analysis of hydroxyproline as above (FIG. 10A) or desmosine (FIG. 10B). The effect of PP-1 on fibrosis in bleo-induced mouse lung injury was evaluated. Mice were treated with saline or 50 μg Bleo intranasally were implanted one day later with, 0.1 ml osmotic pumps i.p. The pumps were filled with either 10 mM (2.92 mg/100 μl) PP-1 (“Bleo+PP-1”) or control scrambled peptide CP-1 (“Bleo+CP-1”).

[3] = system: bleo-induced collagen deposition in mouse lung; assay: Mason's Trichrome stain for collagen of lung sections of bleo-treated mice; format: in vivo; conditions: for Collagen content in lung section: bleo-treated animals, peptide one day after bleo, day 21, trichrome stain
Description: FIG. 13 is a set of photomicrographs showing that PP-1 prevents bleo-induced collagen deposition in mouse lung. Mice were treated with bleo (50 μg/ml) by intranasal instillation followed by treatment with PP-1 (10 nM) or control peptide CP-1 on day 2. Lungs were excised on day 21, inflated and fixed in formalin, a sectioned into […] sections which were subjected to Mason's Trichrome stain (a three-color stain that stains cell nuclei red, collagen green or blue, and cytoplasm red). Blue staining indicates collagen deposition in bleo-treated lung sections.
FIGS. 14A & 14B is a series of photomicrographs of lung epithelial tissue stained with Mason's trichrome stain for collagen (FIG. 10A) and by TUNEL staining for apoptosis (FIG. 10B). Bleo-treated animals were instilled with either PP-1, PP-2 or control peptide CP-1 one day after bleo treatment, The lungs were removed on day 21, subjected to the staining procedures and examined for collagen accumulation or apoptosis.
Collagen deposition in mouse lung after bleo treatment was investigated. Mice were treated with bleo (50 μg/ml) by intranasal instillation followed by treatment with PP-1 (10 nM) (designated as PP in Figure) or control peptide CP-1 (designated CP in FIG. 13) on day 2. Lungs were excised on day 21, inflated and fixed in formalin, a sectioned into […] sections which were subjected to Mason's Trichrome stain (a three-color stain that stains cell nuclei red, collagen green or blue, and cytoplasm red).
A comparison was made of normal and bleo-treated lung, and the effect of PP-1 and PP-2 on the bleo-treated lungs were examined. Animals were treated with bleo and peptides as above. Lung tissue was removed at day 21 and stained with Mason's trichrome stain for collagen and subjected to TUNEL staining for apoptosis.

[4] = conclusion from Table 3, day 21

Question: How did the “uPAR levels in lung (membrane proteins)” value (uPAR) turn out when “DGIWKASFTTFTVTKYWFYR [PP-1, residues 82-101 of human Cav-1, the caveolin-1 scaffolding domain]” was run?
Answer: The value was “enhanced the suppressed uPA and uPAR levels”.

Question: What about the “bleo-induced mouse lung injury (TUNEL staining for apoptosis)” value ([1]; bleo 50 μg/ml intranasal, peptide intranasally 3.35 μM (375 μg/50 μl) on day 2, 4 and 6, lungs after 21 days) of the same substance?
Answer: The value was “prevented bleo-induced mouse lung injury in vivo”.

Question: What about the “Lung epithelial cell apoptosis: appearance of cells” value [1] of the same substance?
Answer: The value was “No fibrosis,”.

Question: And the “Lung epithelial cell apoptosis: cell death” value [1]?
Answer: Its value is 12% cell.

Question: And the “protection of LECs from bleo-induced lung injury” value [1, 4]?
Answer: Its value is greater than 90%.

Question: What about the “bleo-induced LEC apoptosis (apoptotic scores)” value ([1]; i.p. 0.1 ml osmotic minipump, 10 mM peptide, one day after intranasal bleo, lungs after 16 days) of the same substance?
Answer: The value was “protect against bleo-induced LEC apoptosis”.

Question: And the “apoptosis (TUNEL positive cells)” value [1]?
Answer: The value was “reversed bleomycin-induced apoptosis”.

Question: And the “cleavage (degradation) of PARP in lung” value (cleaved PARP)?
Answer: The value was “reversed such PARP degradation”.

Question: And the “PAI-1 expression in lung tissue (IHC)” value (PAI-1)?
Answer: The value was “reduced this PAI-1 expression”.

Question: And the lung desmosine levels [2]?
Answer: Its lung desmosine levels is “significantly reduced, to normal levels”.

Question: And the “bleo-induced collagen deposition (Mason's Trichrome stain)” value ([3]; bleo 50 μg/ml intranasal, PP-1 (10 nM) on day 2, lungs day 21)?
Answer: Its value is “prevented bleo-induced collagen deposition”.

Question: What about the “Collagen content in lung section” value [3] of the same substance?
Answer: The value was “Normal”.

Question: What about the “development of bleo-induced lung fibrosis” value [3, 4] of the same substance?
Answer: Its value is “prevented the development of bleo-induced lung fibrosis”.

Question: What does the source list for Bleomycin?
Answer: uPAR levels in lung (membrane proteins) (uPAR): suppression; Lung epithelial cell apoptosis: appearance of cells [1]: Fibrotic cells,; Lung epithelial cell apoptosis: cell death [1]: 80% cell death; apoptosis (TUNEL positive cells) [1]: increased apoptosis (TUNEL positive cells) as early as 24 h after exposure; cleavage (degradation) of PARP in lung (cleaved PARP): induced cleavage of PARP after 72 h of exposure; PAI-1 expression in lung tissue (IHC) (PAI-1): PAI-1 expression was also increased in bleomycin-treated mice beginning 24 h after treatment; lung desmosine levels [2]: significant increase in lung hydroxyproline or desmosine levels; Collagen content in lung section [3]: Increased
